Source: PMC7281506, “Bengamide Analogues Show A Potent Antitumor Activity against Colon Cancer Cells: A Preliminary Study” (Marine Drugs, 2020)
Where two headings read alike, the source gives them in different places. One block for each compound: values may come before it.

Key:
[1] = test system: MCF7 breast cancer cell line; assay: Proliferation assay (Sulforhodamine B), MCF7; assay type: cell-based; settings: Homo sapiens; MCF7, 72 h treatment, mean ± SD of triplicate samples
Description: (§1) The T84, SW480, HCT15, HT29 and MC38 colon cancer cell lines were selected to assay the bengamide effect. A normal colon fibroblast cell line (CCD18) was included in the analysis. In addition, a cell line of another tumor type (breast cancer) was studied (MCF7). All cell lines were grown in Dulbecco’s modified Eagle’s medium (DMEM) supplemented with fetal bovine serum (10%) and a mix of penicillin-streptomycin (1%) (Sigma-Aldrich, Madrid, Spain). Cell lines were maintained at 37 °C and 5% CO2 in a humidified incubator.
(§2) The different cell lines were seeded in 48-well plates at a cell density of 3 × 10^3 cells/well for MC38, 5 × 10^3 cells/well for T84, SW480, HCT15 and CCD18, 15 × 10^3 cells/well for HT29 and 4 × 10^3 cells/well for MCF7. After attaching to the well, the treatments, Ben I and Ben V (analogues 5 and 10, respectively), were added in a wide range of doses determined by the cell line from an initial stock of 0.3 mg/mL for Ben I and 6.9 mg/mL for Ben V, both dissolved in water. The treatments were maintained for 72 h. Elapsed this time, the cells were fixed with trichloroacetic acid at 10%, stained with Sulforhodamine B (Sigma-Aldrich, Madrid, Spain) and the dye was lifted with Trizma® (Sigma-Aldrich, Madrid, Spain) at 10% following a previously established protocol. Doxorubicin and 5-Fluorouracil were used as reference compounds in breast and colon cell lines, respectively.

[2] = test system: MDA-MB-435 human breast cancer cells; settings: cited from earlier work
[3] = clinical candidate; cited from earlier work
[4] = test system: CCD18 normal colon fibroblast cell line; assay: Proliferation assay (Sulforhodamine B), CCD18; assay type: cell-based; settings: Homo sapiens, CCD18, 72 h treatment, mean ± SD of triplicate samples
Description: as §1, §2

[5] = test system: T84 colon cancer cell line; assay: Proliferation assay (Sulforhodamine B), T84; assay type: cell-based; settings: Homo sapiens; T84, 72 h treatment, mean ± SD of triplicate samples
Description: as §1, §2

[6] = test system: SW480 colon cancer cell line; assay: Proliferation assay (Sulforhodamine B), SW480; assay type: cell-based; settings: Homo sapiens; SW480, 72 h treatment, mean ± SD of triplicate samples
Description: as §1, §2

[7] = test system: HCT15 resistant colon cancer cell line; assay: Proliferation assay (Sulforhodamine B), HCT15; assay type: cell-based; settings: Homo sapiens, HCT-15; HCT15, 72 h treatment, mean ± SD of triplicate samples
Description: as §1, §2

[8] = test system: HT29 colon cancer cell line; assay: Proliferation assay (Sulforhodamine B), HT29; assay type: cell-based; settings: Homo sapiens, HT-29; HT29, 72 h treatment, mean ± SD of triplicate samples
Description: as §1, §2

[9] = test system: MC38 mouse colon cancer cell line; assay: Proliferation assay (Sulforhodamine B), MC38; assay type: cell-based; settings: MC-38, MC38, 72 h treatment, mean ± SD of triplicate samples
Description: as §1, §2

[10] = Hemolysis test using human erythrocytes; assay type: cell-based; settings: human erythrocytes isolated from blood of healthy donors, 1 h at 37 °C, highest doses (range 0.01–40 µM), read-out: level of hemolysis
Description: (§3) To evaluate the effect of Ben I and Ben V compounds on blood cells, a hemolysis test using human erythrocytes and a toxicity test using WBC were carried out. Different blood cells (erythrocytes and WBC) were isolated from blood samples taken from healthy donors and exposed to a wide range of doses of both Ben I and Ben V compounds (0.01–40 µM) following our previously described protocol. Briefly, the erythrocytes were diluted 50 times their initial concentration in PBS, seeded in conical bottom 96-well plates and treated with the different treatments for 1 h at 37 °C under stirring. Following this, the plate was centrifuged, 100 µL of the supernatant was transferred to a new 96-well flat-bottom plate and the absorbance at 492 nm was determined. Erythrocytes treated with Triton X-100 to 20% were used as a positive control and as a negative control, erythrocytes treated with PBS were used. In the case of erythrocytes, the percentage of hemolysis (%HR) was calculated with the following formula: %HR=Abs(sample)−Abs(−control)/Abs(+control)−Abs(−control)×100.

[11] = test system: human erythrocytes; assay: Hemolysis test using human erythrocytes; assay type: cell-based; settings: light microscopy after treatment
Description: as §3

[12] = Toxicity test in white blood cells (CCK-8); assay type: cell-based; settings: human; WBC, 1 and 12 h of exposure, all doses tested (0.01–40 µM)
Description: as §3, with “Erythrocytes treated with Triton X-100 to 20% were used as a positive control and as a negative control, erythrocytes treated with PBS were used.” left out
As for the WBCs, they were seeded in flat-bottom 96-well plates in RPMI-1640 medium supplemented with FBS (10%) and a mixture of antibiotic (1%) at a density of 2 × 10^4 cells/well. […] The CCK-8 reagent was added to each well and after 3 h of incubation the absorbance was measured at 450 and 620 nm to determine the viability according to the manufacturer.

[13] = test system: T84 cells; assay: Cell cycle assay (PI, flow cytometry), T84; assay type: cell-based, human; settings: T84, 48 h; for G2/M phase change vs control: IC25 and IC50
Description: (§4) To assess the effect of treatments in the cell cycle, a cancer cell line (T84) and a normal cell line (CCD18) were seeded in 6-well plates at a density of 1.5 × 10^5 and 1 × 10^5 cells/well, respectively. […] In addition, untreated cells were used as a negative control and cells treated with 5-FU at its IC50 at 48 h as a positive control. After this time, the culture medium of each treatment was collected in a clean cytometry tube, the wells were washed with PBS at 4 °C and this wash was added to the previous tube. The cells were detached with a trypsin-EDTA mixture and also added to the tube. Next, the tubes were centrifuged at 3500 rpm for 3 min, the supernatant was discarded, and the pellet was resuspended in 100 µL of PBS. After this, 900 µL of 70% cold EtOH was added to each tube while the tubes were vortexed, then the tubes were placed on ice and incubated at 4 °C for 10 min. After this time, two washes were carried out with PBS to remove ethanol and the pellets were resuspended in 250 µL of PBS, to which 250 µL of DNA extraction solution was added (192 mL of 0.2 M Na2HPO4 + 8 mL of 0.1 M citric acid, pH = 7.8). The samples were incubated at 37 °C for 10 min, centrifuged and the supernatant discarded. Finally, 250 µL of propidium iodide (PI)/RNAse (ImmunoStep, Salamanca, Spain) solution was added and the samples were incubated for 10 min at 37 °C in the dark. Thereafter, the samples were analyzed by FAC Scan on a Becton Dickinson analyzer cytometer (Becton Dickinson, Franklin Lakes, NJ, USA).

[14] = test system: CCD18 normal colon cells; assay: Cell cycle assay (PI, flow cytometry), CCD18; assay type: cell-based, human; settings: CCD18, 48 h; for SubG1 and S phase change vs control: doses of IC50
Description: as §4

[15] = test system: cancer cell line A549; parameters: method as in PMID 26514647; settings: A549, Figure 1; read-out: IC50 (cytotoxicity); cited from earlier work
[16] = read-out: IC50 (cytotoxicity), MDA-MB-435, Figure 1

- IC50 [1]: 40 ± 10 nM
Compound: COc1cccc2c1C(=O)c1c(O)c3c(c(O)c1C2=O)C[C@@](O)(C(=O)CO)C[C@@H]3O[C@H]1C[C@H](N)[C@H](O)[C@H](C)O1 [doxorubicin, reference compound]

Compound: CO[C@@H](C(=O)N[C@H]1CCCCNC1=O)[C@H](O)[C@@H](O)[C@H](O)/C=C/C(C)C [Bengamide E]
- IC50 [2, 16]: 3300 nM

Compound: CO[C@@H](C(=O)N[C@H]1CCCCN(CCOC(=O)C2CCCCC2)C1=O)[C@H](O)[C@@H](O)[C@H](O)/C=C/C(C)(C)C [Ben III]
- IC50 [2, 16]: 17 nM

Compound: CCCCCCCCCCCCCC(=O)O[C@H]1CC[C@H](NC(=O)[C@H](OC)[C@H](O)[C@@H](O)[C@H](O)/C=C/C(C)C)C(=O)NC1 [Bengamide A, bengamide A]
- IC50 [2, 16]: 1 nM

Compound: CO[C@@H](C(=O)N[C@H]1CCCCNC1=O)[C@H](O)[C@@H](O)[C@H](O)/C=C/C1CCCC1 [Ben II]
- IC50 [2, 16]: 440 nM

Compound: CO[C@@H](C(=O)N[C@H]1CC[C@@H](OC(=O)C2CCCCC2)CNC1=O)[C@H](O)[C@@H](O)[C@H](O)/C=C/C(C)(C)C [LAF389]
- IC50 [2, 16]: 40 nM
- pharmacokinetic properties [3]: poor pharmacokinetic properties

- IC50 [5]: 2680 ± 160 nM
- IC50 [6]: 6350 ± 540 nM
- IC50 [7]: 6580 ± 350 nM
- IC50 [8]: 6140 ± 940 nM
- IC50 [9]: 330 ± 10 nM
Compound: O=c1[nH]cc(F)c(=O)[nH]1 [5-fluorouracil, reference compound]
- IC50 [4]: 7350 ± 410 nM

- IC50 [5]: 360 ± 30 nM
- IC50 [6]: 590 ± 70 nM
- IC50 [7]: 1900 ± 150 nM
- IC50 [8]: 1020 ± 190 nM
- IC50 [9]: 1600 ± 130 nM
- IC50 [1]: 490 ± 50 nM
Compound: CO[C@@H](C(=O)N[C@H]1CCCCNC1=O)[C@H](O)[C@@H](O)[C@H](O)/C=C/C(C)(C)C [Ben I]
- IC50 [4]: 4700 ± 280 nM
- hemolysis at 1 h [10]: ~2%
- erythrocytes agglutination or modification of morphology [11]: none of these compounds caused erythrocytes agglutination or modification of their morphology
- viability [12]: ~100%
- SubG1 phase change vs control [13]: No differences were observed with the control
- G2/M phase change vs control [13]: statistically significant (p < 0.05) G2/M phase increase
- G2/M phase change vs control [14]: slight increase
- SubG1 and S phase change vs control [14]: marked increase
- IC50 [2, 16]: 630 nM

Compound: Bengamide F
- IC50 [2, 16]: 2900 nM

Compound: CO[C@@H](C(=O)N[C@H]1CCc2ccccc2NC1=O)[C@H](O)[C@@H](O)[C@H](O)/C=C/C(C)(C)C [Ben IV]
- IC50 [15]: 9 nM

- IC50 [5]: 70 ± 20 nM
- IC50 [6]: 80 nM
- IC50 [7]: 2440 ± 250 nM
- IC50 [8]: 660 ± 180 nM
- IC50 [9]: 6510 ± 1120 nM
- IC50 [1]: 130 ± 10 nM
Compound: CO[C@@H](C(=O)N[C@@H](C)C(=O)NCCCOC(=O)C1CCCCC1)[C@H](O)[C@@H](O)[C@H](O)/C=C/C(C)(C)C [Ben V]
- IC50 [4]: 5080 ± 390 nM
- hemolysis at 1 h [10]: ~2%
- erythrocytes agglutination or modification of morphology [11]: none of these compounds caused erythrocytes agglutination or modification of their morphology
- viability [12]: ~100%
- G0/G1 and S phases change vs control [13]: slight reduction
- SubG1 phase change vs control [13]: No differences were observed with the control
- G2/M phase change vs control [13]: this increase was much greater
- G2/M phase change vs control [14]: slight increase
- SubG1 and S phase change vs control [14]: marked increase
- IC50 ([2]; MDA-MB-435 human breast cancer cells): 4 nM

Compound: CCCCCCCCCCCCCC(=O)O[C@H]1CC[C@H](NC(=O)[C@H](OC)[C@H](O)[C@@H](O)[C@H](O)/C=C/C(C)C)C(=O)N(C)C1 [Bengamide B]
- IC50 [2, 16]: 2.4 nM
